Earlier results on 1 compound are cited in US9175008B1, “Prodrugs of anti-platelet agents” (CELLIX BIO PRIVATE LIMITED, priority 2014, dated 2015).

This series relates to recurrent atherothrombotic events. The settings on record: recurrent atherothrombotic events across a wide range of high-risk patients.

`CC(=O)Oc1ccccc1C(=O)O` [aspirin]: the relative risk reduction result is “approximately 25%”.
